MIC and Activity data for 13 compounds are collected here from ChEMBL document CHEMBL3045019, “Antioxidant and antimicrobial studies of novel N-(substituted-2-chloroquinolin-3-yl)methylidene-4-hydroxy-2H-1,2-benzothiazine-3-carbohydrazides 1,1-dioxides” (2012).

Values after ≈ are worked out from the molar mass of the structure shown. Bounds are passed on as bounds.

Common to all, as to type: functional
One experiment concerns Fusarium oxysporum. Kind of experiment: Antifungal activity against Fusarium oxysporum after 3 to 5 days by agar dilution assay. (In general: In agar dilution the substance is mixed into plates at graded concentrations.)
The test system of another experiment is Aspergillus niger. Kind of experiment: Antifungal activity against Aspergillus niger after 3 to 5 days by agar dilution assay.
For a further experiment, the system named is Aspergillus flavus. The experiment is described as follows: Antifungal activity against Aspergillus flavus after 3 to 5 days by agar dilution assay.
A further experiment has as its system Siminovitchia fortis. Kind of experiment: Antibacterial activity against Bacillus fortis after 24 hr by agar dilution assay.
A further experiment relates to Bacillus thuringiensis. The experiment is described as follows: Antibacterial activity against Bacillus thuringiensis after 24 hr by agar dilution assay.
Another experiment deals with Bacillus subtilis. The experiment is described as follows: Antibacterial activity against Bacillus subtilis after 24 hr by agar dilution assay.
Experiment [1] relates to Salmonella enterica subsp. enterica serovar Gallinarum. Kind of experiment: Antibacterial activity against Salmonella enterica subsp. enterica serovar Gallinarum after 24 hr by agar dilution assay.
The next experiment has as its system Enterobacter cloacae. Kind of experiment: Antibacterial activity against Enterobacter cloacae after 24 hr by agar dilution assay.
A further experiment has as its system Escherichia coli. The experiment is described as follows: Antibacterial activity against Escherichia coli after 24 hr by agar dilution assay.
Experiment [2] in a line: Antioxidant activity assessed as superoxide radical scavenging activity by NBT reduction assay relative to control. Set-up: concentration or dose not given beside the values.

As for `Cc1ccc2cc(/C=N/NC(=O)C3=C(O)c4ccccc4S(=O)(=O)N3)c(Cl)nc2c1`, the MIC in the experiment with Fusarium oxysporum, against Aspergillus niger, in the experiment on Aspergillus flavus, in the experiment on Siminovitchia fortis, in the experiment on Bacillus thuringiensis and against Bacillus subtilis was greater than 1000 µg/mL throughout. Besides, the MIC (in experiment [1]; in the experiment with Enterobacter cloacae; in the experiment with Escherichia coli) was greater than 1000 µg/mL in each case. For the same compound, the Activity in [2] was 49.1%.
`COc1ccc2nc(Cl)c(/C=N/NC(=O)C3=C(O)c4ccccc4S(=O)(=O)N3C)cc2c1`: the MIC (usually the lowest concentration that inhibits growth of the organism) was greater than 100 µg/mL against Fusarium oxysporum; greater than 100 µg/mL in the experiment on Aspergillus niger; greater than 100 µg/mL in the experiment with Aspergillus flavus; greater than 200 µg/mL in the experiment on Siminovitchia fortis; greater than 200 µg/mL against Bacillus thuringiensis; greater than 200 µg/mL against Bacillus subtilis. Also, the MIC (in [1]; against Enterobacter cloacae; against Escherichia coli) was greater than 1000 µg/mL each time. For the same compound, in experiment [2], the Activity came to 67.2%.
For the compound `Cc1ccc2nc(Cl)c(/C=N/NC(=O)C3=C(O)c4ccccc4S(=O)(=O)N3C)cc2c1`, the MIC in the experiment on Fusarium oxysporum, in the experiment on Aspergillus niger, in the experiment on Aspergillus flavus, in the experiment with Siminovitchia fortis, against Bacillus thuringiensis and in the experiment on Bacillus subtilis was greater than 1000 µg/mL in each case. Moreover, the MIC (in [1]; against Enterobacter cloacae; against Escherichia coli) was greater than 1000 µg/mL throughout. The Activity in experiment [2] came out at 51.2%.
`Cc1cccc2cc(/C=N/NC(=O)C3=C(O)c4ccccc4S(=O)(=O)N3C)c(Cl)nc12`: the MIC in the experiment with Fusarium oxysporum, with Aspergillus niger, against Aspergillus flavus, against Siminovitchia fortis, against Bacillus thuringiensis and against Bacillus subtilis was greater than 1000 µg/mL each time. The MIC (in experiment [1]; against Enterobacter cloacae; in the experiment on Escherichia coli) was greater than 1000 µg/mL each time. For the same compound, the Activity in experiment [2] was 61.3%.
With `COc1ccc2cc(/C=N/NC(=O)C3=C(O)c4ccccc4S(=O)(=O)N3)c(Cl)nc2c1`, the MIC in the experiment on Fusarium oxysporum is greater than 200 µg/mL; in the experiment with Aspergillus niger it was greater than 200 µg/mL; in the experiment with Aspergillus flavus, greater than 200 µg/mL; against Siminovitchia fortis it was greater than 100 µg/mL; with Bacillus thuringiensis, greater than 100 µg/mL; against Bacillus subtilis, greater than 1000 µg/mL. Further, the MIC (in [1]; with Enterobacter cloacae; in the experiment on Escherichia coli) was greater than 1000 µg/mL throughout. Besides, the Activity in [2] amounted to 72.1%.
With `Cc1ccc2nc(Cl)c(/C=N/NC(=O)C3=C(O)c4ccccc4S(=O)(=O)N3)cc2c1`, the MIC against Fusarium oxysporum, in the experiment with Aspergillus niger, against Aspergillus flavus, in the experiment on Siminovitchia fortis, against Bacillus thuringiensis and with Bacillus subtilis was greater than 100 µg/mL in each case. The MIC (in experiment [1]; with Enterobacter cloacae; against Escherichia coli) was greater than 1000 µg/mL in each case. For the same compound, in [2], the Activity is 51.8%.
In the case of `COc1ccc2cc(/C=N/NC(=O)C3=C(O)c4ccccc4S(=O)(=O)N3C)c(Cl)nc2c1`, the MIC is greater than 1000 µg/mL with Fusarium oxysporum; greater than 1000 µg/mL against Aspergillus niger; greater than 1000 µg/mL in the experiment with Aspergillus flavus; greater than 100 µg/mL against Siminovitchia fortis; greater than 100 µg/mL against Bacillus thuringiensis; greater than 100 µg/mL against Bacillus subtilis. Moreover, the minimal inhibitory concentration (MIC) (in experiment [1]; in the experiment with Enterobacter cloacae; in the experiment on Escherichia coli) was greater than 1000 µg/mL each time. Moreover, the Activity in experiment [2] was 65.1%.
For the compound `CN[C@@H]1[C@H](O[C@H]2[C@H](O[C@H]3[C@H](O)[C@@H](O)[C@H](N=C(N)N)[C@@H](O)[C@@H]3N=C(N)N)O[C@@H](C)[C@]2(O)C=O)O[C@@H](CO)[C@H](O)[C@H]1O` [STREPTOMYCIN], the MIC against Fusarium oxysporum was determined as 1 µg/mL (≈ 1.72 µM); against Aspergillus niger it was 1 µg/mL (≈ 1.72 µM); in the experiment on Aspergillus flavus, 0.7 µg/mL (≈ 1.2 µM); in the experiment with Siminovitchia fortis it was 0.9 µg/mL (≈ 1.55 µM); against Bacillus thuringiensis it was 3 µg/mL (≈ 5.16 µM); in the experiment with Bacillus subtilis, 1 µg/mL (≈ 1.72 µM). Further, the MIC was determined as 1 µg/mL (≈ 1.72 µM) in experiment [1], 1 µg/mL (≈ 1.72 µM) against Enterobacter cloacae and 0.7 µg/mL (≈ 1.2 µM) with Escherichia coli.
As for `CCCOC(=O)c1cc(O)c(O)c(O)c1`, in [2], the Activity stood at 91.3%.
In the case of `CC1(C)S[C@@H]2[C@H](NC(=O)[C@H](N)c3ccc(O)cc3)C(=O)N2[C@H]1C(=O)O` [AMOXICILLIN], the MIC against Fusarium oxysporum was 2 µg/mL (≈ 5.47 µM); against Aspergillus niger it was 2 µg/mL (≈ 5.47 µM); with Aspergillus flavus, 2 µg/mL (≈ 5.47 µM); with Siminovitchia fortis it was 2 µg/mL (≈ 5.47 µM); against Bacillus thuringiensis, 6 µg/mL (≈ 16.4 µM); against Bacillus subtilis, 3 µg/mL (≈ 8.21 µM). Moreover, the MIC (in experiment [1]; with Enterobacter cloacae; in the experiment with Escherichia coli) was 2 µg/mL (≈ 5.47 µM) in each case.
Consider `Cc1ccc2cc(/C=N/NC(=O)C3=C(O)c4ccccc4S(=O)(=O)N3C)c(Cl)nc2c1`, for which the MIC is greater than 1000 µg/mL with Fusarium oxysporum; greater than 1000 µg/mL with Aspergillus niger; greater than 1000 µg/mL in the experiment on Aspergillus flavus; greater than 100 µg/mL against Siminovitchia fortis; greater than 100 µg/mL against Bacillus thuringiensis; greater than 100 µg/mL against Bacillus subtilis. Further, the MIC (in [1]; against Enterobacter cloacae; with Escherichia coli) was greater than 1000 µg/mL each time. For the same compound, the Activity in experiment [2] was found to be 51.9%.
For the compound `Cc1cccc2cc(/C=N/NC(=O)C3=C(O)c4ccccc4S(=O)(=O)N3)c(Cl)nc12`, the MIC in the experiment with Fusarium oxysporum, in the experiment with Aspergillus niger, against Aspergillus flavus, against Siminovitchia fortis, with Bacillus thuringiensis and against Bacillus subtilis was greater than 1000 µg/mL in each case. Moreover, the MIC (in [1]; in the experiment on Enterobacter cloacae; against Escherichia coli) was greater than 1000 µg/mL throughout. Further, the Activity in experiment [2] worked out at 52.5%.
`COc1ccc2nc(Cl)c(/C=N/NC(=O)C3=C(O)c4ccccc4S(=O)(=O)N3)cc2c1`: the MIC in the experiment with Fusarium oxysporum was greater than 500 µg/mL; in the experiment on Aspergillus niger, greater than 500 µg/mL; against Aspergillus flavus, greater than 500 µg/mL; against Siminovitchia fortis, greater than 100 µg/mL; with Bacillus thuringiensis, greater than 100 µg/mL; in the experiment on Bacillus subtilis it was greater than 100 µg/mL. Moreover, the MIC (in experiment [1]; in the experiment with Enterobacter cloacae; in the experiment on Escherichia coli) was greater than 1000 µg/mL each time. The Activity in experiment [2] was 69.7%.
